Earlier results, collected in patent US20230023032A1, “SUSTAINED RELEASE COMPOSITIONS COMPRISING LIOTHYRONINE” (Amneal Complex Products Research LLC, priority 2020, published 2023).

Conditions: administered in an immediate release form

half-life: about 10 hours
Structure (SMILES): N[C@@H](Cc1cc(I)c(Oc2ccc(O)c(I)c2)c(I)c1)C(=O)O [liothyronine]
